PubChem BioAssay (NCI)
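All cell lines were grown in 96-well plates and treated with compound for 48 hours. GI50 is the concentration that inhibits growth by half. TGI marks complete inhibition of growth.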

How the values were obtained:
Assay in all cases: NCI-60 cell line screen, 48 h
[1] = system: HOP-62 NSCLC
[2] = system: UACC-257 melanoma
[3] = system: UO-31 renal
[4] = system: A549 NSCLC
[5] = system: NCI-H460 lung
[6] = system: 786-0 renal
[7] = system: CCRF-CEM leukemia
[8] = system: RPMI-8226 leukemia
[9] = system: MOLT-4 leukemia
[10] = system: SNB-78 CNS
[11] = system: SN12C renal
[12] = system: LXFL 529 NSCLC
[13] = system: UACC-62 melanoma
[14] = system: KM12 colon
[15] = system: SK-MEL-28 melanoma
[16] = system: NCI-H522 lung
[17] = system: HCC-2998 colon
[18] = system: NCI-H23 lung
[19] = system: SK-MEL-2 melanoma
[20] = system: SK-OV-3 ovarian
[21] = system: SF-295 CNS
[22] = system: SF-539 CNS
[23] = system: HOP-92 NSCLC
[24] = system: SR leukemia
[25] = system: DLD-1 colon
[26] = system: DMS 273 small cell lung
[27] = system: TK-10 renal
[28] = system: HL-60(TB) leukemia
[29] = system: LOX IMVI melanoma
[30] = system: OVCAR-5 ovarian
[31] = system: MALME-3M melanoma
[32] = system: A498 renal
[33] = system: ACHN renal
[34] = system: RXF 393 renal
[35] = system: EKVX NSCLC
[36] = system: HCT-15 colon
[37] = system: SW-620 colon
[38] = system: SF-268 CNS
[39] = system: HOP-18 NSCLC
[40] = system: IGROV1 ovarian
[41] = system: SNB-75 CNS
[42] = system: KM20L2 colon
[43] = system: K-562 leukemia
[44] = system: OVCAR-4 ovarian
[45] = system: HCT-116 colon
[46] = system: U251 CNS
[47] = system: M14 melanoma
[48] = system: COLO 205 colon
[49] = system: SK-MEL-5 melanoma
[50] = system: HT29 colon
[51] = system: OVCAR-3 ovarian
[52] = system: OVCAR-8 ovarian
[53] = system: HS 578T breast
[54] = system: MDA-N
[55] = system: NCI-H226 lung
[56] = system: CAKI-1 renal
[57] = system: T-47D breast
[58] = system: PC-3 prostate
[59] = system: MCF7 breast
[60] = system: MDA-MB-435
[61] = system: DU-145 prostate
[62] = system: MDA-MB-231 breast
[63] = system: NCI/ADR-RES ovarian
[64] = system: SNB-19 CNS
[65] = system: BT-549 breast
[66] = system: DMS 114 small cell lung

With N.N.NCCCCN.O=C([O-])CCl.O=C([O-])CCl.O=C([O-])CCl.O=C([O-])CCl.[Pt+4].[Pt+4] the TGI [1] was > 50 µM, the TGI [2] was > 50 µM and the TGI [3] was > 50 µM. For the same compound, the TGI [4] was > 50 µM, the TGI [5] was > 50 µM and the TGI [6] was > 50 µM. For the same compound, the TGI [7] was > 50 µM, the GI50 [8] was > 50 µM and the TGI [8] was > 50 µM. The TGI [9] was > 50 µM, the GI50 [10] was > 50 µM and the TGI [10] was > 50 µM. The GI50 [11] was 9.99 µM, the TGI [11] was 49.8 µM and the GI50 [12] was > 50 µM. For the same compound, the TGI [12] was > 50 µM, the TGI [13] was > 50 µM and the TGI [14] was > 50 µM. For the same compound, the TGI [15] was > 50 µM, the TGI [16] was > 50 µM and the TGI [17] was > 50 µM. For the same compound, the TGI [18] was > 50 µM, the TGI [19] was > 50 µM and the TGI [20] was > 50 µM. The TGI [21] was > 50 µM, the TGI [22] was > 50 µM and the TGI [23] was > 50 µM. The TGI [24] was > 50 µM, the GI50 [25] was > 50 µM and the TGI [25] was > 50 µM. For the same compound, the GI50 [26] was 36 µM, the TGI [26] was > 50 µM and the TGI [27] was > 50 µM. The TGI [28] was > 50 µM, the TGI [29] was > 50 µM and the TGI [30] was > 50 µM. The TGI [31] was > 50 µM, the TGI [32] was > 50 µM and the TGI [33] was > 50 µM. The TGI [34] was > 50 µM, the TGI [35] was > 50 µM and the TGI [36] was > 50 µM. For the same compound, the TGI [37] was > 50 µM, the TGI [38] was > 50 µM and the GI50 [39] was > 50 µM. For the same compound, the TGI [39] was > 50 µM, the TGI [40] was > 50 µM and the TGI [41] was > 50 µM. For the same compound, the GI50 [42] was > 50 µM, the TGI [42] was > 50 µM and the TGI [43] was > 50 µM. The TGI [44] was > 50 µM, the TGI [45] was > 50 µM and the TGI [46] was > 50 µM. The TGI [47] was > 50 µM, the TGI [48] was > 50 µM and the TGI [49] was > 50 µM. The TGI [50] was > 50 µM, the TGI [51] was > 50 µM and the TGI [52] was > 50 µM.
With CC(CCC(=O)O)(c1cc(Br)c(O)c(Br)c1)c1cc(Br)c(O)c(Br)c1 the TGI [1] was > 100 µM, the TGI [53] was > 100 µM and the TGI [2] was > 100 µM. The TGI [3] was > 100 µM, the TGI [4] was > 100 µM and the TGI [5] was > 100 µM. For the same compound, the TGI [6] was > 100 µM, the TGI [54] was > 100 µM and the TGI [7] was > 100 µM. For the same compound, the TGI [55] was > 100 µM, the TGI [8] was > 100 µM and the TGI [9] was > 100 µM. The TGI [11] was > 100 µM, the TGI [13] was > 100 µM and the TGI [14] was > 100 µM. For the same compound, the TGI [15] was > 100 µM, the TGI [16] was > 100 µM and the TGI [17] was 86.3 µM. For the same compound, the TGI [18] was > 100 µM, the TGI [56] was > 100 µM and the TGI [19] was > 100 µM. The TGI [20] was > 100 µM, the TGI [21] was > 100 µM and the TGI [22] was > 100 µM. The TGI [23] was > 100 µM, the TGI [24] was > 100 µM and the TGI [57] was > 100 µM. For the same compound, the TGI [58] was > 100 µM, the TGI [27] was > 100 µM and the TGI [28] was > 100 µM. The TGI [29] was > 100 µM, the TGI [30] was > 100 µM and the TGI [31] was > 100 µM. The TGI [32] was 87.7 µM, the TGI [59] was > 100 µM and the TGI [33] was > 100 µM. The TGI [34] was > 100 µM, the TGI [35] was > 100 µM and the TGI [36] was > 100 µM. For the same compound, the TGI [60] was > 100 µM, the TGI [37] was > 100 µM and the TGI [38] was > 100 µM. For the same compound, the TGI [40] was > 100 µM, the TGI [41] was > 100 µM and the TGI [43] was > 100 µM. For the same compound, the TGI [61] was > 100 µM, the TGI [44] was > 100 µM and the TGI [45] was > 100 µM. The TGI [62] was > 100 µM, the TGI [46] was > 100 µM and the TGI [47] was > 100 µM. For the same compound, the TGI [63] was > 100 µM, the TGI [48] was > 100 µM and the TGI [64] was > 100 µM. The TGI [49] was 88.3 µM, the TGI [50] was > 100 µM and the TGI [65] was > 100 µM. The TGI [51] was > 100 µM and the TGI [52] was > 100 µM.
For O=C1CCc2cc([N+](=O)[O-])ccc2O1, the TGI [1] was > 100 µM, the TGI [53] was > 100 µM and the TGI [2] was > 100 µM. For the same compound, the TGI [4] was > 100 µM, the TGI [5] was > 100 µM and the TGI [6] was > 100 µM. For the same compound, the TGI [54] was > 100 µM, the TGI [7] was > 100 µM and the TGI [55] was > 100 µM. The TGI [8] was > 100 µM, the TGI [9] was > 100 µM and the TGI [11] was > 100 µM. The TGI [13] was > 100 µM, the TGI [15] was > 100 µM and the TGI [16] was > 100 µM. For the same compound, the TGI [17] was > 100 µM, the TGI [18] was > 100 µM and the TGI [56] was > 100 µM. The TGI [19] was > 100 µM, the TGI [21] was > 100 µM and the TGI [22] was > 100 µM. The TGI [23] was > 100 µM, the TGI [24] was > 100 µM and the TGI [57] was > 100 µM. The TGI [58] was > 100 µM, the TGI [27] was > 100 µM and the TGI [28] was > 100 µM. The TGI [29] was > 100 µM, the TGI [30] was > 100 µM and the TGI [31] was > 100 µM. For the same compound, the TGI [32] was > 100 µM, the TGI [59] was > 100 µM and the TGI [33] was > 100 µM. For the same compound, the TGI [34] was > 100 µM, the TGI [35] was > 100 µM and the TGI [36] was > 100 µM. For the same compound, the TGI [60] was > 100 µM, the TGI [37] was > 100 µM and the TGI [38] was > 100 µM. The TGI [40] was > 100 µM, the TGI [41] was > 100 µM and the TGI [43] was > 100 µM. For the same compound, the TGI [61] was > 100 µM, the TGI [44] was > 100 µM and the TGI [45] was > 100 µM. The TGI [62] was > 100 µM, the TGI [46] was > 100 µM and the TGI [47] was > 100 µM. For the same compound, the TGI [63] was > 100 µM, the TGI [48] was > 100 µM and the TGI [64] was > 100 µM. For the same compound, the TGI [49] was > 100 µM, the TGI [50] was > 100 µM and the TGI [65] was > 100 µM. For the same compound, the TGI [51] was > 100 µM and the TGI [52] was > 100 µM.
CCOc1ccccc1NC(=O)C(=O)C1C(=O)Nc2ccccc2S1=O (configuration not stated) was tested, and the TGI [3] was > 100 µM, the TGI [4] was > 100 µM and the TGI [5] was > 100 µM. The TGI [6] was > 100 µM, the TGI [7] was > 100 µM and the TGI [8] was > 100 µM. The TGI [9] was > 100 µM, the TGI [10] was > 100 µM and the TGI [12] was > 100 µM. The TGI [15] was > 100 µM, the TGI [16] was > 100 µM and the TGI [17] was > 100 µM. The TGI [19] was > 100 µM, the TGI [20] was > 100 µM and the TGI [66] was > 100 µM. For the same compound, the TGI [26] was > 100 µM, the TGI [28] was > 100 µM and the TGI [31] was > 100 µM. The TGI [34] was > 100 µM, the TGI [36] was > 100 µM and the TGI [38] was > 100 µM. The TGI [39] was > 100 µM, the TGI [43] was > 100 µM and the TGI [45] was > 100 µM. For the same compound, the TGI [46] was > 100 µM, the TGI [47] was > 100 µM and the TGI [51] was > 100 µM.
